Experimental data published in patent US20240423946A1, “COMPOUND FOR TREATING NON-ALCOHOLIC FATTY LIVER DISEASE AND RELATED DISEASES” (Algiax Pharmaceuticals GmbH, priority 2021, published 2024).

Tests used:
Format in all cases: cell-based
HepG2 cells = test: Palmitate-induced apoptosis, Caspase-Glo 3/7 activity in HepG2 cells; conditions: 24 h
Experimental: NAFLD is characterized by excessive hepatic fat accumulation which leads to cell death, including apoptosis, of liver cells in the progression of the disease. HepG2s (liver cell line) were seeded in a 96-well plate and cultured for 48 h before inducing cell death/apoptosis with 100 μM, 150 μM, 200 μM, 250 μM, 300 μM BSA-coupled palmitic acid (PA). A concentration-response curve to palmitate for apoptosis expressed as percentage of control of Caspase 3/7 (apoptosis marker) activity of HepG2 cells treated for 24 h were determined. As a positive control for apoptosis 2 μM staurosporine was used. Caspase 3/7 activity after 24 h was measured by a Caspase-Glo® 3/7 Assay (Promega) as described in the manufacturer's protocol. Luminescence was recorded after an incubation step of 35 min using the plate-reader luminometer of a Cytation™ 5.
HepG2 cells were treated with palmitate acid (200 μM) in the presence or absence of HK4 (100 nM) and GABA (100 μM), as well as with the vehicle BSA and the positive control for apoptosis staurosporine (STP) (2 μM) for 24 h. As a negative control an apoptosis inhibitor (API) (100 μM) was used. As described in Example I Caspase 3/7 activity after 24 h was measured by a Caspase-Glo® 3/7 Assay (Promega).

Caspase 7 = test: Human apoptosis array, Caspase 7 protein in lysates of treated HepG2 cells; conditions: HepG2, HK4 100 nM and PA
Experimental: Markers of apoptosis were analysed in the cell lysates of treated HepG2s with a human apoptosis array (RayBiotech, Peachtree Corners, GA) according to manufacturer's protocol. The total protein content was measured using the Pierce BCA protein assay kit (Thermo Fisher Scientific). Membranes were incubated with 250 μg of total protein from untreated and treated HepG2 cells. The spot intensities were quantified after an exposure of 500 ms using the ChemStudio analysis software (Analytik Jena) and normalized to the untreated control after background subtraction with the design spots for it.

[1] = test system: primary human hepatocytes; test: Palmitate-induced apoptosis, caspase 3/7 activity in human primary hepatocytes; conditions: 24 h
Source text: Human primary hepatocytes were purchased from Thermo Fisher and cultured according to the manufacturer's instructions. […] To achieve finale palmitate concentrations, sodium palmitate was complexed with a preheated BSA (Carl Roth, Karlsruhe, Germany) solution at a 2.6:1 molar ratio.

NF-κB subunit p65 = test: Western blot, phospho-NF-κB p65 to NF-κB p65 ratio in HepG2 cells
Experimental: Beside excessive hepatic fat accumulation, inflammation is one of the critical steps in the progression of NAFL to NASH. As an indicator of inflammation, phosphorylation of the transcription factor NF-κB was monitored by a phospho-p65 specific antibody using protein extraction and western blotting.
HepG2 cells were homogenized in lysis buffer including a protease and phosphatase inhibitor cocktail. Cell lysates were centrifuged at 12.000 rpm for 15 min. The protein concentrations were determined using the Pierce BCA protein assay kit (Thermo Fisher Scientific). 20 μg of Proteins were resolved on 4-20% gradient gels (Bio-Rad, Hercules, CA) and transferred onto an Immun-Blot PVDF membrane (Bio-Rad). Membranes were blocked with 5% non-fat dry milk or bovine serum albumin in TBPS containing 0.1% Tween for 1 h at RT, followed by an overnight incubation with the respective primary antibody: Phospho-NF-κB p65 and NF-κB p65 (Cell Signaling Technology, Frankfurt, Germany). Membranes were incubated with the corresponding HRP-coupled secondary antibody. Protein bands were visualized using an ECL Western blot detection substrate (Bio-Rad). The band intensities were quantified with the ChemStudio analysis software (Analytik Jena, Jena, Germany) and normalized by GAPDH band intensity.

`Cc1cc(NC(=S)/C(C#N)=C(\O)C2CC2)ccc1C#N` [HK4, 2-Cyano-N-(4-cyano-3-methyl-phenyl)-3-cyclopropyl-3-hydroxy-thioacrylamide] was tested, and the “Caspase 3/7 activity provoked by palmitate 200 μM, with HK4” value (HepG2 cells; HepG2, HK4 100 nM + palmitate 200 μM) was 47.32±19.56%, the “Caspase 3/7 activity compared to untreated control cells” value (HepG2 cells; HepG2, HK4 alone (100 nM)) was 21.60±2.52% and the “Caspase 7 protein expression vs. PA alone” value (Caspase 7) was 60.91±4.18%. For the same compound, the “Caspase 3/7 activity provoked by palmitate 100 μM, HK4 pre-treatment” value ([1]; HK4 (10 μM) 1 h prior to palmitate 100 μM) was 58.73±16.86%, the “Caspase 3/7 activity provoked by palmitate 200 μM, HK4 pre-treatment” value ([1]; HK4 (10 μM) 1 h prior to palmitate 200 μM) was 57.13±21.47% and the “Effect on phosphorylation of the NF-κB subunit p65 compared to untreated cells” value (NF-κB subunit p65; HepG2, HK4 alone) was “no effect”. The “Ratio of phosphorylated NF-κB to non-phosphorylated NF-κB subunit p65, % of PA” value (NF-κB subunit p65; HepG2, pre-incubation with HK4 then palmitate acid, PA = 100%) was 55.24±10.64%.
With `NCCCC(=O)O` [GABA, gamma-Aminobutyric acid] the “PA-induced apoptosis rate (caspase 3/7 activity), with GABA” value (HepG2 cells; HepG2, GABA 100 μM + palmitate 200 μM) was 764.9±16.72%.
With `CCCCCCCCCCCCCCCC(=O)O` [Palmitate acid, palmitic acid, reference compound] the “Caspase 3/7 activity provoked by palmitate 200 μM” value (HepG2 cells; HepG2, palmitate 200 μM alone) was 1130±103.3%, the “Caspase 3/7 activity (apoptosis), percentage of control” value (HepG2 cells; HepG2, palmitate acid 100 μM alone) was 342.2±12.25% and the “Caspase 3/7 activity provoked by palmitate 100 μM” value ([1]; palmitate 100 μM alone) was 147.3±31.3%. For the same compound, the “Caspase 3/7 activity provoked by palmitate 200 μM” value ([1]; palmitate 200 μM alone) was 155.1±3.78%.
